Test results from patent US20250113823A1, “Arthropod Control Compositions” (priority 2022, published 2025).
Read-outs that look alike come from different tables or passages of the source.

Tests used:
Anopheles gambiae [1] = experiment: Arm-in-cage test on human volunteers over time; format: in vivo; settings: for Complete Protection Time (no confirmed landing) / Number of mosquitoes landing on the treated arm (test): arm treated with 20%
Aedes aegypti [2] = experiment: Warm Body assay, mosquito landings on treated warm body; format: in vivo
How it was run: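 Compounds in ethanol (100 μL, various concentrations) were applied to a sandblasted glass dish covering the warm body (28.3 cm^2), with ethanol as control. Landings were counted automatically from 30 non-blood-fed, sugar-fed Aedes aegypti Rockefeller females aged 5–10 days, under 150 lux.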

Aedes aegypti [3] = experiment: Double (dual) chamber assay, spatial repellence; format: in vivo
Method: FIG. 1: Percentage of mosquitoes Aedes aegypti escaping over time the chamber treated with a stimulus. The four stimuli were the solvent propan-1,2-diol (grey triangles and dotted line), N,N-diethyl-meta-toluamide (medium grey diamonds), 2,6-dimethoxy-4-methylphenol (light gray squares) and 1,2,3-trimethoxy-5-propylbenzene (black circles). Each stimulus was injected during 40 min thanks to a forced evaporation system in the treated chamber containing the mosquitoes, causing their movement toward the untreated refuge chamber. Each point represents the mean number of mosquitoes in the untreated chamber (n=57, 6, 4 and 4 respectively)±SD at 10 min intervals.
The goal of this assay was to reproduce at a smaller scale the validation test for spatial repellent as described in WHO (2013; ISBN 978 92 4 150502 4).
The assay consists of a transparent cage (1200×755×700 mm; ˜0.63 m^3) covered by white paper. This cage is divided in two chambers of equal dimensions by a plasticized paper wall with square opening (200×200 mm) situated in the middle of the wall. At the beginning of the experiment, about 40 two-weeks old female Aedes aegypti mosquitoes are placed in the right chambers. Once the mosquitoes are settled inside this chamber (>5 min), the door between the chambers is opened. Then the stimulus is introduced into the mosquito chamber through a L-shape Teflon tube (40 mm) placed in the middle of the right Plexiglas wall. The stimulus is dispensed thanks to a Forced Evaporation System (Chappuis et al, 2015, DOI: 10.1021/acs.est.5b00692) at a rate of 0.1 mL/min in a nitrogen flow of 1 L/min, blended in a humid air flow of 9L/min before being carried to the L-shape Teflon tube. An air sucking system (˜150 L/min) is placed above the wall opening, between the two chambers (100 mm Ø), preventing the untreated chamber from being contaminated by the stimulus and limiting the stimulus accumulation in the treated chamber. […] Ten, 20, 30 and 40 minutes after the start of the stimulus injection, the number of mosquitoes that have moved to the untreated chamber is manually counted.

Aedes aegypti [4] = experiment: Free flying room assay, spatial repellence with human volunteer; format: in vivo; settings: for mosquitoes landed on the volunteer: in 3 minutes, negative control 60.7±2.5 landings; for Spatial Repellence / Protective efficacy: large scale assay; for Spatial Repellence: 25 m3 chambers, compound released in the air; for Protective efficacy: probing on volunteer forearm, 3 minutes; for mosquito entered the treated chamber: negative control 82.5±3.7%
Text: The goal of this large-scale test is to assess the propensity of stimulus released in the air to protect a human volunteer by limiting the mosquito presence in a protected space and the number of landing/biting. The protocol used to carry the test is following the guidelines indicated in WHO (2013; ISBN 978 92 4 150502 4).
A group of 50 Aedes aegypti female mosquitoes were introduced in one chamber of 25 m^3 one hour before the test started. The product was applied in the other chamber of 25 m^3 (“treated chamber”) and let evaporate for 30 minutes. The test started when the window separating the two chambers was opened in a tilt-on manner for another 30 minutes. Twenty minutes after the window was opened, a volunteer entered in the “treated chamber” and sat down for 10 minutes, exposing the forearm for the last 3 minutes to determine the probing activity (Protective Efficacy). Then, the connecting window was closed and the number of mosquitoes in each of the chambers was counted (Spatial Repellency). The negative controls were carried out following the same procedure but without the application of the stimulus. Three replicates of each treatment and of the negative control were conducted with three different volunteers.

Ixodes ricinus = experiment: Warm Plate assay, tick repellence; settings: Ixodes ricinus, read-out: Percentage of repellence of ticks Ixodes ricinus on the warm plate
Anopheles gambiae [5] = experiment: Warm Body assay, mosquito landings on treated warm body; format: in vivo; settings: for pest or weed control at 3.2 µg/mL: 0.0032 mg/mL (Table 5); for pest or weed control at 80 µg/mL: 0.08 mg/mL (Table 5); for pest or weed control at 2000 µg/mL: 2 mg/mL (Table 5); for repellence (no mosquito landing on the attractive stimulus): with at least one of the two concentrations 0.447% & 1% (Table 4)
Method: Anopheles gambiae is also a model organism as it is anthropophilic and transmits malaria.
The controlling effect according to the present invention was assessed using an adapted Warm Body assay as defined in Kröber T, Kessler S, Frei J, Bourquin M, Guerin P M. 2010. J Am Mosq Control Assoc. 26: 381-386. In this in-vitro assay the number of mosquito landing on a warm body, simulating an attractive host treated with the tested stimuli, was measured in order to assess the repellence effect.
On the sandblasted glass Petri dish covering the warm body (28.3 cm^2), 100 μL of the compounds diluted at different concentrations in ethanol was applied. The number of mosquito landing on the warm body was counted for each stimulus and pure ethanol (solvent) as control.

[6] = Aedes aegypti, 0.016 mg/mL (Table 3), read-out: Percentage of repellence of mosquitoes Aedes aegypti landing on the warm body
[7] = Aedes aegypti, 0.4 mg/mL (Table 3), read-out: Percentage of repellence of mosquitoes Aedes aegypti landing on the warm body
[8] = Aedes aegypti, 10 mg/mL (Table 3), read-out: Percentage of repellence of mosquitoes Aedes aegypti landing on the warm body
[9] = Anopheles gambiae, read-out: Percentage of repellence of mosquitoes Anopheles gambiae landing on the warm body
[10] = Anopheles gambiae, 0.178 mg/mL (Table 4), read-out: Percentage of repellence of mosquitoes Anopheles gambiae landing on the warm body
[11] = Anopheles gambiae, 0.178 mg/mL (Table 5), read-out: Percentage of repellence of mosquitoes Anopheles gambiae landing on the warm body
[12] = Anopheles gambiae, 0.267 mg/mL (Table 4), read-out: Percentage of repellence of mosquitoes Anopheles gambiae landing on the warm body
[13] = Anopheles gambiae, 0.267 mg/mL (Table 5), read-out: Percentage of repellence of mosquitoes Anopheles gambiae landing on the warm body
[14] = Anopheles gambiae, 0.4 mg/mL (Table 4), read-out: Percentage of repellence of mosquitoes Anopheles gambiae landing on the warm body
[15] = Anopheles gambiae, 0.4 mg/mL (Table 5), read-out: Percentage of repellence of mosquitoes Anopheles gambiae landing on the warm body
[16] = Anopheles gambiae, 4.47 mg/mL (Table 4), read-out: Percentage of repellence of mosquitoes Anopheles gambiae landing on the warm body
[17] = Anopheles gambiae, 4.47 mg/mL (Table 5), read-out: Percentage of repellence of mosquitoes Anopheles gambiae landing on the warm body
[18] = Anopheles gambiae, 10 mg/mL (Table 4), read-out: Percentage of repellence of mosquitoes Anopheles gambiae landing on the warm body
[19] = Anopheles gambiae, 10 mg/mL (Table 5), read-out: Percentage of repellence of mosquitoes Anopheles gambiae landing on the warm body

| SMILES | Complete Protection Time (no confirmed landing) (Anopheles gambiae [1]) | mosquitoes landed on the volunteer (Aedes aegypti [4]) | Spatial Repellence (Aedes aegypti [4]) | Protective efficacy (Aedes aegypti [4]) | mosquito entered the treated chamber (Aedes aegypti [4]) | pest or weed control at 16 µg/mL (Aedes aegypti [2]; [6]) | pest or weed control at 400 µg/mL (Aedes aegypti [2]; [7]) | pest or weed control at 10000 µg/mL (Aedes aegypti [2]; [8]) | pest or weed control at 3.2 µg/mL (Anopheles gambiae [5]; [9]) | pest or weed control at 80 µg/mL (Anopheles gambiae [5]; [9]) | pest or weed control at 178 µg/mL (Anopheles gambiae [5]; [10]) | pest or weed control at 178 µg/mL (Anopheles gambiae [5]; [11]) | pest or weed control at 267 µg/mL (Anopheles gambiae [5]; [12]) | pest or weed control at 267 µg/mL (Anopheles gambiae [5]; [13]) | pest or weed control at 400 µg/mL (Anopheles gambiae [5]; [14]) | pest or weed control at 400 µg/mL (Anopheles gambiae [5]; [15]) | pest or weed control at 2000 µg/mL (Anopheles gambiae [5]; [9]) | pest or weed control at 4470 µg/mL (Anopheles gambiae [5]; [16]) | pest or weed control at 4470 µg/mL (Anopheles gambiae [5]; [17]) | pest or weed control at 10000 µg/mL (Anopheles gambiae [5]; [18]) | other results |
| --- | --- | --- | --- | --- | --- | --- | --- | --- | --- | --- | --- | --- | --- | --- | --- | --- | --- | --- | --- | --- | --- |
| CCCCN(CCC(=O)OCC)C(C)=O [IR3535, ethyl butylacetylaminopropionate, reference compound] | 0.17 h |  |  |  |  |  |  |  |  |  |  |  |  |  |  |  |  |  |  |  |  |
| COc1cc(C)cc(OC)c1O [compound 1537, 2,6-dimethoxy-4-methylphenol] |  | 14.7±2.5 | 64.3 ± 3.4% | 75.8 ± 3.9% | 29.5±2.8% |  |  |  |  |  |  |  |  |  |  |  |  |  |  |  | pest or weed control at 3.2 µg/mL (Aedes aegypti [2]; Aedes aegypti, 0.0032 mg/mL (Table 2), read-out: Percentage of repellence of mosquitoes Aedes aegypti landing on the warm body): 0%; pest or weed control at 16 µg/mL (Aedes aegypti [2]; Aedes aegypti, 0.016 mg/mL (Table 2), read-out: Percentage of repellence of mosquitoes Aedes aegypti landing on the warm body): 35%; pest or weed control at 35.7 µg/mL (Aedes aegypti [2]; Aedes aegypti, 0.0357 mg/mL (Table 2), read-out: Percentage of repellence of mosquitoes Aedes aegypti landing on the warm body): 36%; pest or weed control at 80 µg/mL (Aedes aegypti [2]; Aedes aegypti, 0.08 mg/mL (Table 2), read-out: Percentage of repellence of mosquitoes Aedes aegypti landing on the warm body): 40%; pest or weed control at 178 µg/mL (Aedes aegypti [2]; Aedes aegypti, 0.178 mg/mL (Table 2), read-out: Percentage of repellence of mosquitoes Aedes aegypti landing on the warm body): 62%; pest or weed control at 400 µg/mL (Aedes aegypti [2]; Aedes aegypti, 0.4 mg/mL (Table 2), read-out: Percentage of repellence of mosquitoes Aedes aegypti landing on the warm body): 89%; pest or weed control at 890 µg/mL (Aedes aegypti [2]; Aedes aegypti, 0.89 mg/mL (Table 2), read-out: Percentage of repellence of mosquitoes Aedes aegypti landing on the warm body): 84%; pest or weed control at 2000 µg/mL (Aedes aegypti [2]; Aedes aegypti, 2 mg/mL (Table 2), read-out: Percentage of repellence of mosquitoes Aedes aegypti landing on the warm body): 100%; pest or weed control at 10000 µg/mL (Aedes aegypti [2]; Aedes aegypti, 10 mg/mL (Table 2), read-out: Percentage of repellence of mosquitoes Aedes aegypti landing on the warm body): 100%; plateau of mosquitoes moved to the untreated chamber (Aedes aegypti [3]; after 30 min of injection): ~42%; pest or weed control at 400 µg/mL (Ixodes ricinus): 16.7%; pest or weed control at 2000 µg/mL (Ixodes ricinus): 58.3%; pest or weed control at 10000 µg/mL (Ixodes ricinus): 72.7% |
| Cc1ccc2c(c1)OCC(=O)CO2 [compound 1228, 7-methyl-1,5-benzodioxepin-3-one] | 1.33 h |  |  |  |  | 54% | 74% | 100% | 0% | 0% | 48% | 48% | 85% | 71% | 65% | 66% | 92% | 92% | 92% | 100% | pest or weed control at 1 % (Aedes aegypti [2]; Aedes aegypti, highest tested concentration, 1% (Table 3), read-out: repellence): > 90%; pest or weed control at 0.0016 % (Aedes aegypti [2]; Aedes aegypti, lowest concentration of 0.0016% (Table 3), read-out: reduce the number of mosquito landings): > 50%; mosquito landing within the two minutes of experiments (Aedes aegypti [2]; highest tested concentration, 1% (Table 3)): protect the attractive stimulus for any mosquito landing; pest or weed control at 598 µg/mL (Anopheles gambiae [5]; Anopheles gambiae, 0.598 mg/mL (Table 5), read-out: Percentage of repellence of mosquitoes Anopheles gambiae landing on the warm body): 69%; pest or weed control at 10000 µg/mL (Anopheles gambiae [5]; [19]): 100%; repellence (no mosquito landing on the attractive stimulus) (Anopheles gambiae [5]): 100%; Number of mosquitoes landing on the treated arm (test) (Anopheles gambiae [1]; 30 min post-application): 0; Number of mosquitoes landing on the treated arm (test) (Anopheles gambiae [1]; 1 h post-application): 0; Number of mosquitoes landing on the treated arm (test) (Anopheles gambiae [1]; 2 h post-application): 3.0 ± 1.8; Number of mosquitoes landing on the treated arm (test) (Anopheles gambiae [1]; 3 h post-application): 7.5 ± 1.1; protection (Anopheles gambiae [1]; at 3 h, on two volunteers): 79.64% |
| COc1cc(C)cc(OC)c1OC [compound 1967, 3,4,5-trimethoxytoluene] |  | 22.3±3.2 | 47.3 ± 3.8% | 63.1 ± 5.5% | 43.5±3.2% | 0% | 12% | 81% | 0% | 1% | 65% | 59% | 78% | 82% | 84% | 71% | 100% | 100% | 100% | 100% | pest or weed control at 16 µg/mL (Anopheles gambiae [5]; Anopheles gambiae, 0.016 mg/mL (Table 5), read-out: Percentage of repellence of mosquitoes Anopheles gambiae landing on the warm body): 0%; pest or weed control at 10000 µg/mL (Anopheles gambiae [5]; [19]): 100%; repellence (Anopheles gambiae [5]; concentration ≥0.0178% (Table 5)): > 50%; landing (Anopheles gambiae [5]; concentrations ≥0.2% (Table 5)): no landing at all; percentage of repellence (Anopheles gambiae [5]; lowest concentration tested, 0.0178% (Table 4)): above 60%; repellence (no mosquito landing on the attractive stimulus) (Anopheles gambiae [5]): 100% |
| CCN(CC)C(=O)c1cccc(C)c1 [DEET, N,N-diethyl-meta-toluamide, reference compound] |  |  |  |  |  |  |  |  |  |  |  |  |  |  |  |  |  |  |  |  | movement of mosquitoes towards the refuge chamber (Aedes aegypti [3]; after 40 min of injection in the treated chamber): 16.2%±7.3% |
